A short description of data set [1]: Miscibility of QPT-TEG with polar organic solvents. It is filed as physicochemical. The settings on record: acetonitrile, dimethyl sulfoxide, dichloromethane and other solvents, in any ratio. An excerpt:
The bipolar redox-active molecule with the above structure (QPT-TEG) is a […] fluid that is miscible with most polar organic solvents. QPT-TEG is able to increase the overall solubility of the molecule by introducing long ether chains without changing the redox potential of the designed redox subject molecule.

The nature of data set [2]: Cyclic voltammetry (CV), TBA-TFSI supporting electrolyte in acetonitrile. It counts as physicochemical. Here is the method:
Redox kinetics of QPT-OMe obtained in Embodiment 1 is tested by cyclic voltammetry (CV). Tetrabutylammonium bis(trifluoromethylsulfonyl)imide (TBA-TF SI) is used as a supporting electrolyte and acetonitrile as a solvent. The results are shown in FIG. 3, where two pairs of symmetrical cathodic and anodic peaks can be clearly observed. The half-wave potentials of −2.04 and 0.72 V (with respect to Ag^+/Ag) correspond to the reduction and oxidation reactions of QPT-OMe, respectively. The open-circuit voltage is about 2.76 V when using QPT-OMe as the active material in the RFB, which is one of the highest value for bipolar molecules so far.
Furthermore, the QPT-OMe/QPT-OMe and QPT-P-OMe/QPT-OMe redox pairs show high rate constants of 1.4×10^−2 and 1.6×10-2 cm s^−1, respectively, by calculation. This is probably due to the relatively low recombination energy required for single electron transfer to occur from a large off-domain π-conjugated system. The high rate constants also imply negligible voltage loss when electrochemical reactions occur at the electrode surface.
The redox kinetics of QPT-TEG obtained in Embodiment 4 is tested by cyclic voltammetry (CV). Tetrabutylammonium bis(trifluoromethylsulfonyl)imide (TBA-TF SI) is used as a supporting electrolyte and acetonitrile as a solvent.

The mark [3] stands for this setting: with respect to Ag+/Ag, TBA-TFSI, acetonitrile.

On to `COCCOCCOCCOc1ccc2c(c1)c(=O)c1cccc3c1n2-c1ccccc1S3` [QPT-TEG], for which the miscibility with solvents result in data set [1] is on record as “miscible”. The “redox behavior in CV” value in data set [2] (compared with QPT-OMe, FIG. 5) is reported as “basically the same as that of QPT-OMe”.

On to `COc1ccc2c(c1)c(=O)c1cccc3c1n2-c1ccccc1S3` [QPT-OMe], for which the electrochemical window in data set [2] is approximately 3 V. For the same compound, the “rate constant, QPT-OMe/QPT-OMe redox pair” value in data set [2] (first-named redox pair, by calculation) was 0.014 cm/s. Moreover, the “open-circuit voltage as active material in the RFB” value in data set [2] (from the two half-wave potentials) was “about 2.76 V”. For the same compound, in data set [2] (setting [3]), the “half-wave potential, oxidation reaction” value is 0.72 V and the “half-wave potential, reduction reaction” value was −2.04 V.

The record behind these values is patent publication US12617804B2, “Conjugation-fused bipolar redox-active molecule, preparation method, and application thereof” (Hangzhou Normal University, priority 2021, dated 2026).
